Source: patent US20130273649A1, “Culture medium for pluripotent stem cells” (UNIVERSITY OF SOUTHERN CALIFORNIA, priority 2012, published 2013)

Key:
[1] = tested on: Axin1; assay: Western blot of Axin1 in human ESCs; type: cell-based; details: human ESCs treated 24 h
Protocol: (A) TOPFlash™ assay in H9 human ESCs subjected to the indicated treatments for 24 h. Data represent mean±s.d. of three biological replicates. (B) Representative phase contrast and alkaline phosphatase (AP) staining images of H9 human ESCs cultured in the indicated conditions for 3 passages. (C) Phase contrast images of H9 human ESCs cultured in CHIR/XAV or CHIR/IWR-1 for 11 passages. (D) Colony forming efficiency assay of H9 human ESCs cultured in FGF2 or CHIR/IWR-1 conditions. Data represent mean±s.d. of three biological replicates. Right panel: a representative image showing AP staining of colonies formed from H9 human ESCs cultured in either FGF2 or CHIR/IWR-1 condition. (E) Human ESCs cultured in CHIR/IWR-1 for 11 passages were immunostained with the indicated antibodies. (F) Embryoid bodies (EBs) were generated from H9 human ESCs cultured in CHIR/IWR-1 for 11 passages. The outgrowths of EBs were immunostained with the indicated antibodies. (G) H&E staining of teratomas generated from H9 ESCs cultured in CHIR/IWR-1 for 20 passages. (H) Western blot analysis of Axin1 and Axin2 expression in HES3 human ESCs treated with the indicated cytokines/inhibitors for 24 h. (I) Immunofluorescence images of H9 human ESCs (passage 5 in CHIR) overexpressing Flag-tagged Axin2. […]

[2] = tested on: CD1 EpiSCs; assay: Clonogenicity: colony formation after single-cell deposition of EpiSCs; type: cell-based, mouse; details: 96-well plate, CHIR only
Protocol: (A) Representative phase-contrast images of CD1 mouse EpiSCs cultured in the indicated conditions. […] (B) Phase-contrast image showing differentiating CD1 mouse EpiSCs at the 2nd passage in GMEM/10% FBS with 2 μM XAV. (C) CD1 mouse EpiSCs were cultured in CHIR/XAV for 7 passages and were subsequently immunostained with indicated antibodies against pluripotency markers. (D) Numbers of undifferentiated colonies formed by day 9 after single-cell deposition of CD1 EpiSCs into 0.1% gelatin-coated 96-well plates and cultured in the conventional mouse ESC medium supplemented with the indicated small molecules or cytokines Results are shown as mean±s.d. of six biological replicates. (E) De novo derivation of mouse EpiSCs. Epiblast tissue (outlined in dashed line) of the E5.75 CD1 mouse embryo was dissected and cultured in CHIR/XAV. The outgrowth formed from the plated epiblast (middle panel) was disaggregated to establish a stable EpiSC line (right panel). Thirteen […] established from 13 plated CD1 mouse embryos. Scale bars, 50 μ[…]). See also FIG. 8. We compared the clonogenicity of EpiSCs cultured in different conditions. […] EpiSC colonies formed in CHIR/XAV were readily expanded to establish stable cell lines. […] As expected, in the CHIR/XAV condition, EpiSCs were readily derived from embryonic day (E) 5.75 embryos of CD1 and 129SvE mice (FIGS. 1E and 8B). […]

In the case of Cc1c[nH]c(-c2cnc(NCCNc3ccc(C#N)cn3)nc2-c2ccc(Cl)cc2Cl)n1 [CHIR99021, 6-((2-((4-(2,4-Dichlorophenyl)-5-(4-methyl-1H-imidazol-2-yl)pyrimidin-2-yl)amino)ethyl)amino)nicotinonitrile], the “amount of Axin1 protein” value [1] is reported as “not Axin1” and the “undifferentiated colony formation from single EpiSC” value [2] is reported as “No undifferentiated colonies formed”.
